Assay results from patent publication US8686150B2 (Sanofi, priority 2011, dated 2014).

What follows are molecules tested against T1, human full-length recombinant PKC βII (Homo sapiens, UniProt P05771) (assay: Determination of PKC βII inhibition (Caliper mobility-shift kinase assay, Fluorescein-RFARKGSLRQKNV peptide substrate)). Settings: example compounds at a final concentration of 1.14 μM (±0.15 μM).
T1 construct: Active human full-length recombinant PKC βII; purchased Invitrogen GmbH, Darmstadt, Germany
T1 sequence (P05771 1-673 isoform P05771-2): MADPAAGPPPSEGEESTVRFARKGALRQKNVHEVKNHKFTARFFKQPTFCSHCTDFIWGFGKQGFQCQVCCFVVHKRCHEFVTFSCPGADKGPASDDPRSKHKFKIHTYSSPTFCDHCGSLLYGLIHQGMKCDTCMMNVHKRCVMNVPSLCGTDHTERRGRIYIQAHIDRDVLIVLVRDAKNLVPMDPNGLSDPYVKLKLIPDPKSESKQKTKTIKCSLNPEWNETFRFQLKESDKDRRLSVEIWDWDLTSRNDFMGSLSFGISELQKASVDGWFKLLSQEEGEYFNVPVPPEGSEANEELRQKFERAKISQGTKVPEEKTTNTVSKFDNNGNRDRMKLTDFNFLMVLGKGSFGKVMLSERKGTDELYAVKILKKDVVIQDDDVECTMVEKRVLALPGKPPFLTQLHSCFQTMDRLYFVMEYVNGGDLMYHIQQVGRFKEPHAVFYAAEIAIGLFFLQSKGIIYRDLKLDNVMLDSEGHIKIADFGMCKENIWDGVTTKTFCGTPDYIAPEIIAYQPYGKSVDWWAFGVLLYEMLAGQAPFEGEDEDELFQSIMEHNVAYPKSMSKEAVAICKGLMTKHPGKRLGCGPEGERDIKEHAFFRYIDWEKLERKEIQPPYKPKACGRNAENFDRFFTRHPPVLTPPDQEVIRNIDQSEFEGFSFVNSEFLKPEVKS
Type: biochemical
Method in brief: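 Compounds were tested at 1.14 μM final. Enzyme was activated by PS, DAG and CaCl2 in Hepes pH 7.4 with MgCl2, with substrate 3 μM and ATP 120 μM as pre-mix concentrations. After 60 min at 32 °C and an EDTA stop, Caliper separation gave fractional turnover, which was normalised to no-compound and no-enzyme controls.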

| inhibition at 1.14 µM [%] | SMILES | % Inhibition [%] |
| --- | --- | --- |
| 49 | CCc1n[nH]c2nc(-c3ccc(O)cc3)cc(C(=O)N3CC(N)C3)c12 [Example 160, (3-Amino-azetidin-1-yl)-[3-ethyl-6-(4-hydroxy-phenyl)-1H-pyrazolo[3,4-b]pyridin-4-yl]-methanone] |  |
| 77 | CCc1n[nH]c2nc(-c3ccc(O)cc3)cc(C(=O)N[C@H]3CNC[C@@H]3OC)c12 [Example 161, 3-Ethyl-6-(4-hydroxy-phenyl)-1H-pyrazolo[3,4-b]pyridine-4-carboxylic acid ((3S,4S)-4-methoxy-pyrrolidin-3-yl)-amide] |  |
|  | CCc1n[nH]c2nc(-c3ccc(O)cc3)cc(C(=O)NC3CC4CCC(C3)N4C)c12 [Example 164, 3-Ethyl-6-(4-hydroxy-phenyl)-1H-pyrazolo[3,4-b]pyridine-4-carboxylic acid ((3R)-8-methyl-8-aza-bicyclo[3.2.1]oct-3-yl)-amide] | 53 |
| 92 | CCc1n[nH]c2nc(-c3ccc(O)cc3)cc(C(=O)N3CCNC(C)C3)c12 (stereo not drawn) [Example 165, [3-Ethyl-6-(4-hydroxy-phenyl)-1H-pyrazolo[3,4-b]pyridin-4-yl]-(3-methyl-piperazin-1-yl)-methanone] |  |
| 87 | CCc1n[nH]c2nc(-c3ccc(O)cc3)cc(C(=O)N3CCC(N)CC3)c12 [Example 166, (4-Amino-piperidin-1-yl)-[3-ethyl-6-(4-hydroxy-phenyl)-1H-pyrazolo[3,4-b]pyridin-4-yl]-methanone] |  |
| 58 | CCc1n[nH]c2nc(-c3ccc(O)cc3)cc(C(=O)N3CCC4CNCC43)c12 (stereo not drawn) [Example 167, [3-Ethyl-6-(4-hydroxy-phenyl)-1H-pyrazolo[3,4-b]pyridin-4-yl]-(hexahydro-pyrrolo[3,4-b]pyrrol-1-yl)-methanone] |  |
| 44 | CCc1n[nH]c2nc(-c3ccc(O)cc3)cc(C(=O)NC3CCNC4(CCC4)C3)c12 (stereo not drawn) [Example 168, 3-Ethyl-6-(4-hydroxy-phenyl)-1H-pyrazolo[3,4-b]pyridine-4-carboxylic acid (5-aza-spiro[3.5]non-8-yl)-amide] |  |
| 84 | CCc1n[nH]c2nc(-c3ccc(O)cc3)cc(C(=O)N3CC4(CCNCC4)C3)c12 [Example 169, (2,7-Diaza-spiro[3.5]non-2-yl)-[3-ethyl-6-(4-hydroxy-phenyl)-1H-pyrazolo[3,4-b]pyridin-4-yl]-methanone] |  |
| 59 | CCc1n[nH]c2nc(-c3ccc(O)cc3)cc(C(=O)NC3CCCC(N)C3)c12 (stereo not drawn) [Example 170, 3-Ethyl-6-(4-hydroxy-phenyl)-1H-pyrazolo[3,4-b]pyridine-4-carboxylic acid (3-amino-cyclohexyl)-amide] |  |
| 77 | CCc1n[nH]c2nc(-c3ccc(O)cc3)cc(C(=O)N3CCC4(CC3)CNC4)c12 [Example 171, (2,7-Diaza-spiro[3.5]non-7-yl)-[3-ethyl-6-(4-hydroxy-phenyl)-1H-pyrazolo[3,4-b]pyridin-4-yl]-methanone] |  |
| 67 | CCc1n[nH]c2nc(-c3ccc(O)cc3)cc(C(=O)N3CCC4(CCNC4)C3)c12 (stereo not drawn) [Example 172, (2,7-Diaza-spiro[4.4]non-2-yl)-[3-ethyl-6-(4-hydroxy-phenyl)-1H-pyrazolo[3,4-b]pyridin-4-yl]-methanone] |  |
| 58 | CCc1n[nH]c2nc(-c3ccc(O)cc3)cc(C(=O)N3CCC4(CCCNC4)C3)c12 (stereo not drawn) [Example 173, (2,7-Diaza-spiro[4.5]dec-2-yl)-[3-ethyl-6-(4-hydroxy-phenyl)-1H-pyrazolo[3,4-b]pyridin-4-yl]-methanone] |  |
| 34 | CCc1n[nH]c2nc(-c3ccc(O)cc3)cc(C(=O)N(C)C3CCN(C)CC3)c12 [Example 174, 3-Ethyl-6-(4-hydroxy-phenyl)-1H-pyrazolo[3,4-b]pyridine-4-carboxylic acid methyl-(1-methyl-piperidin-4-yl)-amide] |  |
| 46 | CCc1n[nH]c2nc(-c3ccc(O)cc3)cc(C(=O)NC3CCCN(CC)C3)c12 (stereo not drawn) [Example 175, 3-Ethyl-6-(4-hydroxy-phenyl)-1H-pyrazolo[3,4-b]pyridine-4-carboxylic acid (1-ethyl-piperidin-3-yl)-amide] |  |
| 40 | CCc1n[nH]c2nc(-c3ccc(O)cc3)cc(C(=O)N3CC[C@@H](N(C)C)C3)c12 [Example 176, ((R)-3-Dimethylamino-pyrrolidin-1-yl)-[3-ethyl-6-(4-hydroxy-phenyl)-1H-pyrazolo[3,4-b]pyridin-4-yl]-methanone] |  |
| 50 | CCc1n[nH]c2nc(-c3ccc(O)cc3)cc(C(=O)N3CC[C@H](N(C)C)C3)c12 [Example 177, ((S)-3-Dimethylamino-pyrrolidin-1-yl)-[3-ethyl-6-(4-hydroxy-phenyl)-1H-pyrazolo[3,4-b]pyridin-4-yl]-methanone] |  |
| 71 | CCc1n[nH]c2nc(-c3ccc(O)cc3)cc(C(=O)N3CCC(NC)C3)c12 (stereo not drawn) [Example 178, [3-Ethyl-6-(4-hydroxy-phenyl)-1H-pyrazolo[3,4-b]pyridin-4-yl]-(3-methylamino-pyrrolidin-1-yl)-methanone] |  |
| 55 | CCc1n[nH]c2nc(-c3ccc(O)cc3)cc(C(=O)N3C[C@]4(C)CN(C)C[C@](C)(C3)C4O)c12 (stereo partly drawn) [Example 179, [3-Ethyl-6-(4-hydroxy-phenyl)-1H-pyrazolo[3,4-b]pyridin-4-yl]-((1S,5R)-9-hydroxy-1,5,7-trimethyl-3,7-diaza-bicyclo[3.3.1]non-3-yl)-methanone] |  |
| 53 | CCc1n[nH]c2nc(-c3ccc(O)cc3)cc(C(=O)NC3CCCN(C)C3)c12 (stereo not drawn) [Example 180, 3-Ethyl-6-(4-hydroxy-phenyl)-1H-pyrazolo[3,4-b]pyridine-4-carboxylic acid (1-methyl-piperidin-3-yl)-amide] |  |
| 77 | CCc1n[nH]c2nc(-c3ccc(O)cc3)cc(C(=O)NC3CC4(CCNCC4)c4ccccc43)c12 (stereo not drawn) [Example 181, 3-Ethyl-6-(4-hydroxy-phenyl)-1H-pyrazolo[3,4-b]pyridine-4-carboxylic acid (2,3-dihydrospiro[1H-indene-1,4′-piperidin]-3-yl)-amide] |  |
| 44 | CCc1n[nH]c2nc(-c3ccc(O)cc3)cc(C(=O)NC3CCN(C)CC3)c12 [Example 182, 3-Ethyl-6-(4-hydroxy-phenyl)-1H-pyrazolo[3,4-b]pyridine-4-carboxylic acid (1-methyl-piperidin-4-yl)-amide] |  |
| 67 | CCc1n[nH]c2nc(-c3ccc(O)cc3)cc(C(=O)NC3CNC3)c12 [Example 183, 3-Ethyl-6-(4-hydroxy-phenyl)-1H-pyrazolo[3,4-b]pyridine-4-carboxylic acid azetidin-3-ylamide] |  |
| 34 | CCc1n[nH]c2nc(-c3ccc(O)cc3)cc(C(=O)N[C@@H]3CCC(=O)NC3)c12 [Example 185, 3-Ethyl-6-(4-hydroxy-phenyl)-1H-pyrazolo[3,4-b]pyridine-4-carboxylic acid ((R)-6-oxo-piperidin-3-yl)-amide] |  |
| 33 | CCc1n[nH]c2nc(-c3ccc(O)cc3)cc(C(=O)NCC3CCC(=O)N3)c12 (stereo not drawn) [Example 186, 3-Ethyl-6-(4-hydroxy-phenyl)-1H-pyrazolo[3,4-b]pyridine-4-carboxylic acid (5-oxo-pyrrolidin-2-ylmethyl)-amide] |  |
| 58 | CCc1n[nH]c2nc(-c3ccc(O)cc3)cc(C(=O)N3CCCN(CC)CC3)c12 [Example 187, (4-Ethyl-[1,4]diazepan-1-yl)-[3-ethyl-6-(4-hydroxy-phenyl)-1H-pyrazolo[3,4-b]pyridin-4-yl]-methanone] |  |
| 105 | Cc1n[nH]c2nc(-c3ccc(O)cc3)cc(C(=O)N3CCNC[C@@H]3C)c12 [Example 188, [6-(4-Hydroxy-phenyl)-3-methyl-1H-pyrazolo[3,4-b]pyridin-4-yl]-((S)-2-methyl-piperazin-1-yl)-methanone] |  |
| 96 | Cc1n[nH]c2nc(-c3ccc(O)cc3)cc(C(=O)N3CCN[C@H](C)C3)c12 [Example 189, [6-(4-Hydroxy-phenyl)-3-methyl-1H-pyrazolo[3,4-b]pyridin-4-yl]-((R)-3-methyl-piperazin-1-yl)-methanone] |  |
| 101 | Cc1n[nH]c2nc(-c3ccc(O)cc3)cc(C(=O)N3CCN[C@@H](C)C3)c12 [Example 190, [6-(4-Hydroxy-phenyl)-3-methyl-1H-pyrazolo[3,4-b]pyridin-4-yl]-((S)-3-methyl-piperazin-1-yl)-methanone] |  |
| 78 | Cc1n[nH]c2nc(-c3ccc(O)cc3)cc(C(=O)NC3CC4(CC(N)C4)C3)c12 (stereo not drawn) [Example 191, 6-(4-Hydroxy-phenyl)-3-methyl-1H-pyrazolo[3,4-b]pyridine-4-carboxylic acid (6-amino-spiro[3.3]hept-2-yl)-amide] |  |
| 99 | Cc1n[nH]c2nc(-c3ccc(O)cc3)cc(C(=O)N3CC4CNCC4C3)c12 (stereo not drawn) [Example 192, (Hexahydro-pyrrolo[3,4-c]pyrrol-2-yl)-[6-(4-hydroxy-phenyl)-3-methyl-1H-pyrazolo[3,4-b]pyridin-4-yl]-methanone] |  |

| SMILES | inhibition at 1.14 µM [%] | % Inhibition [%] |
| --- | --- | --- |
| CCc1n[nH]c2nc(-c3ccc(O)cc3)cc(C(=O)N[C@@H]3CN4CCC3CC4)c12 [Example 162, (S)-3-Ethyl-6-(4-hydroxy-phenyl)-1H-pyrazolo[3,4-b]pyridine-4-carboxylic acid (1-aza-bicyclo[2.2.2]oct-3-yl)-amide] | 51 |  |
| CCc1n[nH]c2nc(-c3ccc(O)cc3)cc(C(=O)NC3CC4CCC(C3)N4C)c12 (stereo not drawn) [Example 163, 3-Ethyl-6-(4-hydroxy-phenyl)-1H-pyrazolo[3,4-b]pyridine-4-carboxylic acid (8-methyl-8-aza-bicyclo[3.2.1]oct-3-yl)-amide] | 57 |  |
| CCc1n[nH]c2nc(-c3ccc(O)cc3)cc(C(=O)NC3CC4CCCC(C3)N4C)c12 (stereo not drawn) [Example 184, 3-Ethyl-6-(4-hydroxy-phenyl)-1H-pyrazolo[3,4-b]pyridine-4-carboxylic acid (9-methyl-9-aza-bicyclo[3.3.1]non-3-yl)-amide] | 22 |  |
